US6187906A, “Methods to improve neural outcome” (Aukland Uniservices Limited, priority 1998, dated 2001)

Test system: hypoxic-ischemic brain injury
Assay: Hypoxic-ischemic brain injury in adult rats, central GPE (Experiment 3)
Format: in vivo, Wistar rats
Method: The objective of this study was to compare the effects of treatment with GPE to that of vehicle given 2 hours after a hypoxic-ischemic brain injury.
Unilateral hypoxic-ischemic injury was induced in adult 300±10 g) male Wistar rats. The rats underwent unilateral carotid ligation under light halothane anaesthesia. Following one hour recovery they were placed in an incubator at 34C at 85±5% humidity for one hour before injury. They were subjected to 10 min inhalational asphyxia (FiO2 6.0%) and maintained in the incubator for one hour after asphyxia. Two hours after the termination of the inhalation injury, a single stereotaxically controlled lateral cerebroventricular injection of either 3 μGPE (n=15) or phosphate buffered saline alone (n=15) was given. The animals were then maintained for 120 hrs, anaesthetized and the brains fixed in situ for histological assessment.
Surviving and dead neurons were discriminated with the use of a thionin/acid fuchsin staining technique [C. Williams, A. Gunn, C. Mallard, P. Gluckman Ped Res. (1990). A. Brown, J. Brierley, J. Neurol Sci, 16:59-84 (1971)]. The results are shown in FIG. 3; using a scoring technique. […] Similar to our previous study with IGF-1 the incidence of cortical infarction was lower following GPE treatment at 27% compared to the control/vehicle treated rats at 53% (Guan et al J Cereb Blood Flow Metab. 13:609-616 (1993)).
(The incidence of hippocampal damage was reduced following treatment with 3 μg GPE. The asterisk indicates a probability of under <0.05.
For this figure the columns A and B indicate the proportional loss of area (which can be extrapolated to indicate volume using the well-known principles of stereology) between the left and rights sides of the cortex of the brain, for either a control vehicle or 3 μG of GPE. Volumes were measured using computer-aided image analysis techniques. […] Neurones were counted after staining, with the aid of a microscope. […] Thus a single central injection of GPE following an asphyxial injury in the adult rat was associated with a marked improvement in outcome as assessed histologically.

With NCC(=O)N1CCC[C@H]1C(=O)N[C@@H](CCC(=O)O)C(=O)O [GPE, gly-pro-glu] the “incidence of hippocampal damage in the ligated hemisphere” value (3 μg GPE 2 hours after hypoxia, p<0.05 vs vehicle) was “reduced the incidence of hippocampal damage”, the “incidence of cortical infarction” value (3 μg GPE lateral cerebroventricular injection 2 hours after injury, 120 hrs, vehicle 53%) was 27% and the “number of damaged cells (FIG. 4, cortex area and live hippocampal neurones R/L)” value (3 μg GPE, single central injection, p 0.04) was “significant reduction in the number of damaged cells”.
